Target: T1, AsPC-1 HiBiT-KRASG12D (Homo sapiens, UniProt P01116, G12D)
T1 construct: insert the HiBiT tag onto the N-terminus of one or more of the endogenous KRAS alleles; endogenous in cells; host or cells: AsPC-1 (ATCC CRL-1682), CRISPR-Cas9 knock-in clone, one tagged allele
Experiment: HiBiT degradation assay (G12D), AsPC-1 HiBiT-KRASG12D cells
Type: cell-based
Conditions: 24 hours treatment; for DC50: AsPC-1 HiBiT-KRASG12D cells, HiBiT luminescence; for Dmax: ASPC1, AsPC-1 HiBiT-KRASG12D cells, maximum degradation observed
In short: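 Steps: treat HiBiT-KRASG12D AsPC-1 cells with compound for 24 hours; add alamar blue to 1× and incubate 4 hours to assess viability; wash with PBS; add HiBiT lytic detection reagent, incubate 45 minutes at room temperature; read luminescence. Viability fluorescence is normalized to DMSO wells.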

T1 sequence (P01116 1-188 isoform P01116-2 G12D): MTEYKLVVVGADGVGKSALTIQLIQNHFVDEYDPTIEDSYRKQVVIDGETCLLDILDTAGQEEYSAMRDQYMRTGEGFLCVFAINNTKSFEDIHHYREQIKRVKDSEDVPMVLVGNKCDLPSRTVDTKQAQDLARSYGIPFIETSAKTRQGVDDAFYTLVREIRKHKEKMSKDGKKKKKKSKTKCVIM

Structure (SMILES)	DC50 [nM]	Dmax [%]
CCc1cccc2cc(O)cc(-c3ncc4c(N5CC6CCC(C5)N6C=O)nc(OCCN5CCC6(CC5)CN(c5cc([C@H](C(=O)N7C[C@H](O)C[C@H]7C(=O)N[C@@H](C)c7ccc(-c8scnc8C)cc7)C(C)C)on5)C6)nc4c3F)c12 [Compound 290, (2S,4R)-1-[(2R)-2-[3-[7-[2-[7-(8-ethyl-3-hydroxy-1-naphthyl)-8-fluoro-4-(8-formyl-3,8-diazabicyclo[3.2.1]octan-3-yl)pyrido[4,3-d]pyrimidin-2-yl]oxyethyl]-2,7-diazaspiro[3.5]nonan-2-yl]isoxazol-5-yl]-3-methyl-butanoyl]-4-hydroxy-N-[(1S)-1-[4-(4-methylthiazol-5-yl)phenyl]ethyl]pyrrolidine-2-carboxamide]	> 3000	
CCc1cccc2cc(O)cc(-c3ncc4c(N5CC6CCC(C5)N6)nc(OCCN5CCC(F)(CN6CCN(c7cc([C@@H](C(=O)N8C[C@H](O)C[C@H]8C(=O)N[C@@H](C)c8ccc(-c9scnc9C)cc8)C(C)C)on7)[C@H](C)C6)CC5)nc4c3F)c12 [Compound 224, (2S,4R)-1-[(2S)-2-{3-[(2R)-4-[(1-{2-[(4-{3,8-diazabicyclo[3.2.1]octan-3-yl}-7-(8-ethyl-3-hydroxynaphthalen-1-yl)-8-fluoropyrido[4,3-d]pyrimidin-2-yl)oxy]ethyl}-4-fluoropiperidin-4-yl)methyl]-2-methylpiperazin-1-yl]-1,2-oxazol-5-yl}-3-methylbutanoyl]-4-hydroxy-N-[(1S)-1-[4-(4-methyl-1,3-thiazol-5-yl)phenyl]ethyl]pyrrolidine-2-carboxamide]	600 to 1000	20 to 60
CCc1cccc2cc(O)cc(-c3ncc4c(N5CC6CCC(C5)N6)nc(OCCN5CCC(C(C)(C)N6CCN(c7cc([C@H](C(=O)N8C[C@H](O)C[C@H]8C(=O)N[C@@H](C)c8ccc(-c9scnc9C)cc8)C(C)C)on7)CC6)CC5)nc4c3F)c12 [Compound 186, (2S,4R)-1-[(2R)-2-(3-{4-[2-(1-{2-[(4-{3,8-diazabicyclo[3.2.1]octan-3-yl}-7-(8-ethyl-3-hydroxynaphthalen-1-yl)-8-fluoropyrido[4,3-d]pyrimidin-2-yl)oxy]ethyl}piperidin-4-yl)propan-2-yl]piperazin-1-yl}-1,2-oxazol-5-yl)-3-methylbutanoyl]-4-hydroxy-N-[(1S)-1-[4-(4-methyl-1,3-thiazol-5-yl)phenyl]ethyl] pyrrolidine-2-carboxamide]	< 600	80 to 100
CCc1cccc2cc(O)cc(-c3ncc4c(N5CC6CCC(C5)N6)nc(OCCN5CC(CC6CCN(c7cc([C@@H](C(=O)N8C[C@H](O)C[C@H]8C(=O)N[C@@H](C)c8ccc(-c9scnc9C)cc8)C(C)C)on7)CC6)C5)nc4c3F)c12 [Compound 234, (2S,4R)-1-[(2S)-2-(3-{4-[(1-{2-[(4-{3,8-diazabicyclo[3.2.1]octan-3-yl}-7-(8-ethyl-3-hydroxynaphthalen-1-yl)-8-fluoropyrido[4,3-d]pyrimidin-2-yl)oxy]ethyl}azetidin-3-yl)methyl]piperidin-1-yl}-1,2-oxazol-5-yl)-3-methylbutanoyl]-4-hydroxy-N-[(1S)-1-[4-(4-methyl-1,3-thiazol-5-yl)phenyl]ethyl] pyrrolidine-2-carboxamide]	1000 to 3000	20 to 60
C#Cc1c(F)ccc2cc(O)cc(-c3ncc4c(N5CC6CCC(C5)N6)nc(OCCN5CCC(CC6CCN(c7cc([C@H](C(=O)N8C[C@H](O)C[C@H]8C(=O)N[C@@H](C)c8ccc(-c9ccnn9C)cc8)C(C)C)on7)CC6)CC5)nc4c3F)c12 [Compound 168, (2S,4R)-1-[(2R)-2-(3-{4-[(1-{2-[(4-{3,8-diazabicyclo[3.2.1]octan-3-yl}-7-(8-ethynyl-7-fluoro-3-hydroxynaphthalen-1-yl)-8-fluoropyrido[4,3-d]pyrimidin-2-yl)oxy]ethyl}piperidin-4-yl)methyl]piperidin-1-yl}-1,2-oxazol-5-yl)-3-methylbutanoyl]-4-hydroxy-N-[(1S)-1-[4-(1-methyl-1H-pyrazol-5-yl)phenyl]ethyl]pyrrolidine-2-carboxamide]	< 600	80 to 100

Source: patent publication US20250206732A1, “COMPOUNDS AND METHODS FOR THE TARGETED DEGRADATION OF KRAS” (Arvinas Operations, Inc., priority 2022, published 2025)
